Patent publication US12398101B2, “Herbicidal 2-azaspiro[3-5]nonane compounds” (SYNGENTA CROP PROTECTION AG, priority 2018, dated 2025)

Tests used:
Type in all cases: in vivo
Details in all cases: 250 g/h, evaluated after 13 days
Setaria faberi (SETFA) [1] = test: Glasshouse herbicide test, post-emergence application
Protocol: (§1) Seeds of a variety of test species are sown in standard soil in pots (Lolium perenne (LOLPE), Setaria faberi (SETFA), Echinochloa crus-galli (ECHCG), Avena fatua (AVEFA)). After cultivation for one day (pre-emergence) or after 8 days cultivation (post-emergence) under controlled conditions in a glasshouse (at 24/16° C., day/night; 14 hours light; 65% humidity), the plants are sprayed with an aqueous spray solution derived from the formulation of the technical active ingredient in acetone/water (50:50) solution containing 0.5% Tween 20 (polyoxyethelyene sorbitan monolaurate, CAS RN 9005-64-5). Compounds are applied at 250 g/h. The test plants are then grown in a glasshouse under controlled conditions in a glasshouse (at 24/16° C., day/night; 14 hours light; 65% humidity) and watered twice daily. After 13 days for pre and post-emergence, the test is evaluated for the percentage damage caused to the plant. The biological activities are shown in the following table on a five point scale (5=80-100%; 4=60-79%; 3=40-59%; 2=20-39%; 1=0-19%).

Lolium perenne (LOLPE) [2] = test: as above
Protocol: as §1

Avena fatua (AVEFA) [3] = test: as above
Protocol: as §1

[4] = test system: Echinochloa crus-galli (ECHCG); test: as above
Protocol: as §1

Setaria faberi (SETFA) [5] = test: Glasshouse herbicide test, pre-emergence application
Protocol: as §1

Lolium perenne (LOLPE) [6] = test: as above
Protocol: as §1

Avena fatua (AVEFA) [7] = test: as above
Protocol: as §1

[8] = test system: Echinochloa crus-galli (ECHCG); test: as above
Protocol: as §1

Row | Structure (SMILES) | percentage damage caused to the plant, five point scale, SETFA (Setaria faberi (SETFA) [1]) | percentage damage caused to the plant, five point scale, LOLPE (Lolium perenne (LOLPE) [2]) | percentage damage caused to the plant, five point scale, AVEFA (Avena fatua (AVEFA) [3]) | percentage damage caused to the plant, five point scale, ECHCG [4] | percentage damage caused to the plant, five point scale, SETFA (Setaria faberi (SETFA) [5]) | percentage damage caused to the plant, five point scale, LOLPE (Lolium perenne (LOLPE) [6]) | percentage damage caused to the plant, five point scale, AVEFA (Avena fatua (AVEFA) [7]) | percentage damage caused to the plant, five point scale, ECHCG [8]
1 | CC#Cc1cc(Cl)c(C2C(=O)CC3(CC2=O)CN(C(C)=O)C3)c(OC)c1 [Compound 1.195] | 5 (5=80-100%) | 5 (5=80-100%) | 5 (5=80-100%) | 5 (5=80-100%) | 5 (5=80-100%) | 5 (5=80-100%) | 5 (5=80-100%) | 5 (5=80-100%)
2 | COc1cc(-c2ccc(F)cc2)cc(C)c1C1C(=O)CC2(CC1=O)CN(C(C)=O)C2 [Compound 1.203] | 5 (5=80-100%) | 5 (5=80-100%) | 5 (5=80-100%) | 5 (5=80-100%) | 5 (5=80-100%) | 4 (4=60-79%) | 5 (5=80-100%) | 5 (5=80-100%)
3 | CC#Cc1cc(C)c(C2C(=O)CC3(CC2=O)CN(C(=O)C(C)(C)C)C3)c(OC)c1 [Compound 1.021] | 5 (5=80-100%) | 5 (5=80-100%) | 5 (5=80-100%) | 5 (5=80-100%) | 5 (5=80-100%) | 5 (5=80-100%) | 5 (5=80-100%) | 5 (5=80-100%)
4 | CC#Cc1cc(C)c(C2C(=O)CC3(CC2=O)CN(C(=O)C(F)F)C3)c(OC)c1 [Compound 1.024] | 5 (5=80-100%) | 5 (5=80-100%) | 5 (5=80-100%) | 5 (5=80-100%) | 5 (5=80-100%) | 5 (5=80-100%) | 5 (5=80-100%) | 5 (5=80-100%)
5 | CC#Cc1cc(C)c(C2C(=O)CC3(CC2=O)CN(C(C)=O)C3)c(OC)c1 [Compound 1.013] | 5 (5=80-100%) | 5 (5=80-100%) | 5 (5=80-100%) | 5 (5=80-100%) | 5 (5=80-100%) | 5 (5=80-100%) | 5 (5=80-100%) | 5 (5=80-100%)
6 | CC#Cc1cc(C)c(C2C(=O)CC3(CC2=O)CN(C(=O)COC)C3)c(C)c1 [Compound 1.005] | 5 (5=80-100%) | 5 (5=80-100%) | 5 (5=80-100%) | 5 (5=80-100%) | 5 (5=80-100%) | 5 (5=80-100%) | 5 (5=80-100%) | 5 (5=80-100%)
7 | CC#Cc1cc(C)c(C2C(=O)CC3(CC2=O)CN(S(=O)(=O)CC)C3)c(C)c1 [Compound 1.002] | 5 (5=80-100%) | 5 (5=80-100%) | 5 (5=80-100%) | 5 (5=80-100%) | 5 (5=80-100%) | 5 (5=80-100%) | 5 (5=80-100%) | 5 (5=80-100%)
8 | CC#Cc1cc(C)c(C2C(=O)CC3(CC2=O)CN(C(=O)NC(C)(C)C)C3)c(C)c1 [Compound 1.006] | 5 (5=80-100%) | 5 (5=80-100%) | 5 (5=80-100%) | 5 (5=80-100%) | 5 (5=80-100%) | 5 (5=80-100%) | 2 (2=20-39%) | 5 (5=80-100%)
